This experiment relates to T1, 1N4R p-tau.
T1 construct: made in house; host or cells: E. coli (PIMAX system)
Kind of experiment: p-tau aggregation modulator screen of 1280-compound library (ThS fluorescence net change over 16 h).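 For ThS net change: 30 µM compound with 6 µM p-tau over 16 h.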 Type of experiment: biochemical. On the set-up: key to PTAI>2SD: *: PTAI>2SD. The conditions noted are these: for PTAI>2SD: flag: p-tau aggregation inhibitor, ThS net change more than 2 SD from mean.

[1] abbreviates: p-tau aggregation modulator screen of the compound library, ThS fluorescence net change.
The mark [2] stands for this setting: 1280-compound library screen, ThS fluorescence net change over 16 h.
The mark [3] stands for this setting: library screen, ThS fluorescence net change over 16 h with p-tau.
Setting [4] is: p-tau aggregation modulator screen of 1280-compound library, ThS fluorescence net change.
Where [5] appears, read: 1280-compound library screen, […].

Where a name gives a salt, the structure may show the parent alone. Read-outs that look alike come from different tables or passages of the source.

Compound `CCOc1ccc2c(c1)C(C)=CC(C)(C)N2` [Ethoxyquin] came in with a ThS net change under setting [1] of 460.

`CC1CNc2c(cccc2S(=O)(=O)N[C@@H](CCCNC(=N)N)C(=O)N2CC[C@@H](C)C[C@@H]2C(=O)O)C1` (some centres unmarked) [Argatroban] displayed a ThS net change under setting [2] of 388.

Take `Cl.Clc1ccc(C(OCCN2CCCCC2)c2ccccc2)cc1` (centres unmarked) [Cloperastine hydrochloride]: the ThS net change under setting [2] turned out to be 386.

Take `C[C@](N)(Cc1ccc(O)c(O)c1)C(=O)O` [Methyldopa (L,-)]: the ThS net change under setting [1] is given as 447.

Consider `CC(CN(C)C)CN1c2ccccc2CCc2ccccc21.O=C(O)/C=C\C(=O)O` (centres unmarked) [Trimipramine maleate salt], for which, under setting [2], the ThS net change amounted to 399.

Regarding `Cc1onc(-c2ccccc2)c1-c1ccc(S(N)(=O)=O)cc1` [Valdecoxib], the ThS net change under setting [2] stood at 393.

The compound `O=C(Nc1ccc([N+](=O)[O-])cc1Cl)c1cc(Cl)ccc1O` [Niclosamide] showed a ThS net change under setting [3] of 199.

For the compound `O=C(O)Cc1sc(-c2ccccc2)nc1-c1ccc(Cl)cc1` [Fentiazac], the ThS net change under setting [2] stood at 382.

In turn, `C[C@]12C[C@H](O)[C@H]3[C@@H](CCC4=CC(=O)CC[C@@]43C)[C@@H]1CC[C@@H]2C(=O)CO` [Corticosterone] yielded a ThS net change under setting [1] of 416.

As for `CCN(CC)CCNC(=O)c1cc(S(C)(=O)=O)ccc1OC` [Tiapride hydrochloride], under setting [4], the ThS net change came out at 349.

Consider `CS(=O)(=O)c1ccc([C@@H](O)[C@@H](CF)NC(=O)C(Cl)Cl)cc1` [Florfenicol], for which the ThS net change under setting [1] turned out to be 433.

Under setting [1], `CCOC(=O)C(C)(C)Oc1ccc(Cl)cc1` [Clofibrate] came in with a ThS net change of 461.

`CCC1NC(=O)c2cc(S(N)(=O)=O)c(Cl)cc2N1` (centres unmarked) [Quinethazone]: the ThS net change under setting [1] came out at 427.

Regarding `COc1cc(-c2ccc(=O)[nH]n2)ccc1OC(F)F` [Zardaverine], the ThS net change under setting [1] stood at 454.

Compound Lymecycline registered a ThS net change of 312.

Compound `C[N+](C)(C)CCOC(N)=O` [Carbachol] had a ThS net change under setting [1] of 440.

For the compound `CC(=O)[C@H]1CC[C@H]2[C@@H]3CCC4=CC(=O)CC[C@]4(C)[C@H]3CC[C@]12C` [Progesterone], the ThS net change under setting [4] is on record as 336.

`CC(=O)NCCCS(=O)(=O)O` [Acamprosate calcium] showed a ThS net change of 422.

Under setting [1], `CC(=O)N[C@@H](CC(C)C)C(=O)O` [N-Acetyl-L-leucine] came in with a ThS net change of 417.

On to `CCCCOc1ccc(CC(=O)NO)cc1` [Bufexamac], for which the “PTAI>2SD” value is given as “*”. The same compound displayed a ThS net change under setting [3] of 140.

In turn, `Clc1ccc(CO/N=C(\Cn2ccnc2)c2ccc(Cl)cc2Cl)c(Cl)c1` [Oxiconazole Nitrate] displayed a ThS net change of 211.

`Nc1cc(-c2ccncc2)c[nH]c1=O` [Amrinone] gave a ThS net change under setting [2] of 410.

`NCC[C@H](O)C(=O)N[C@@H]1C[C@H](N)[C@@H](O[C@H]2O[C@H](CN)[C@@H](O)[C@H](O)[C@H]2O)[C@H](O)[C@H]1O[C@H]1O[C@H](CO)[C@@H](O)[C@H](N)[C@H]1O.O.O` [Amikacin hydrate] showed a ThS net change of 418.

The compound `Cl.Cl.c1ccc2c(c1)CCCc1cc(NCCN3CCOCC3)nnc1-2` returned a ThS net change under setting [4] of 345.

Compound `CN(C)CCc1c[nH]c2ccc(Cn3cncn3)cc12` [Rizatriptan benzoate] registered a ThS net change of 473.

The compound `COc1ccc([C@@H]2CC(=O)c3c(O)cc(O[C@@H]4O[C@H](CO[C@@H]5O[C@@H](C)[C@H](O)[C@@H](O)[C@H]5O)[C@@H](O)[C@H](O)[C@H]4O)cc3O2)cc1O` [Hesperidin] came in with a ThS net change of 425.

As for `COc1ccc(CCN)cc1OC.Cl` [Homoveratrylamine], the ThS net change is on record as 439.

On to `Cl.Oc1noc2c1CCNC2` [THIP Hydrochloride], for which the ThS net change is 448.

The compound `NC(=O)c1ncn([C@@H]2O[C@H](CO)[C@@H](O)[C@H]2O)n1` [Ribavirin] came in with a ThS net change under setting [1] of 458.

Where the note is “p-tau aggregation modulator screen of 1280-compound library, […]”, `CCCC(C)(COC(N)=O)COC(=O)NC(C)C` (centres unmarked) [Carisoprodol] gave a ThS net change of 370.

`CN1CCN2c3ncccc3Cc3ccccc3C2C1` (centres unmarked) [Mirtazapine] displayed a ThS net change under setting [1] of 534.

Compound `CCC1(CC)C(=O)C=CNC1=O` [Pyrithyldione] had a ThS net change under setting [5] of 404.

As to `C1CCC(C(CC2CCCCN2)C2CCCCC2)CC1` (centres unmarked) [Perhexiline maleate], the ThS net change under setting [4] is reported as 342.

For the compound `C=C(C)[C@@H]1[C@H]2OC(=O)[C@@H]1[C@]1(O)C[C@H]3O[C@]34C(=O)O[C@H]2[C@]14C` [Picrotoxinin], the ThS net change under setting [5] was found to be 390.

As for `O=c1n(CCCN2CCN(c3cccc(Cl)c3)CC2)nc2ccccn12` [Trazodone hydrochloride], under setting [3], the ThS net change amounted to 316.

Consider `CO[C@H]1/C=C/O[C@@]2(C)Oc3c(C)c(O)c4c(O)c(c(/C=N/N5CCN(C)CC5)c(O)c4c3C2=O)NC(=O)/C(C)=C\C=C\[C@H](C)[C@H](O)[C@@H](C)[C@@H](O)[C@@H](C)[C@H](OC(C)=O)[C@@H]1C` [Rifampicin], for which the “PTAI>2SD” value is “*”. Besides, under setting [3], the ThS net change stood at 158.

Under setting [1], `CC(=O)CC(c1ccc([N+](=O)[O-])cc1)c1c(O)c2ccccc2oc1=O` (centres unmarked) [Acenocoumarol] had a ThS net change of 568.

Under setting [4], `Clc1cc(Cl)c(OCC#CI)cc1Cl` [Haloprogin] gave a ThS net change of 374.

The compound `CC[N+](C)(CC)CCC[n+]1c(-c2ccccc2)c2cc(N)ccc2c2ccc(N)cc21.[I-].[I-]` [Propidium iodide] registered a ThS net change of 269.

Under setting [2], `NCCc1c[nH]c2ccc(O)cc12` [Serotonin hydrochloride] showed a ThS net change of 412.

Under setting [2], `N=C(N)NCc1cccc(I)c1.O=S(=O)(O)O` [Iobenguane sulfate] had a ThS net change of 411.

`Cc1ncc(CO)c(CO)c1O` [Pyridoxine hydrochloride]: the ThS net change under setting [4] worked out at 354.

Turning to `CC[N+]1(C)CCCC(OC(=O)C(O)(c2ccccc2)c2ccccc2)C1` (centres unmarked) [Pipenzolate bromide], the ThS net change came to 395.

Compound `CN1C(=O)CC(c2ccccc2)C1=O` (centres unmarked) [Phensuximide] came in with a ThS net change under setting [1] of 453.

`Cn1c(=O)c2c(ncn2CCO)n(C)c1=O` [Etofylline] showed a ThS net change under setting [1] of 422.

Take `CC(C)(S)C(N)C(=O)O` (racemic) [D,L-Penicillamine]: the ThS net change under setting [2] turned out to be 385.

Under setting [3], `CC(NC(C)(C)C)C(=O)c1cccc(Cl)c1` (centres unmarked) [Bupropion hydrochloride] had a ThS net change of 278.

As for `CC(Oc1c(Cl)cccc1Cl)C1=NCCN1` (centres unmarked) [Lofexidine], under setting [2], the ThS net change was 408.

With `CS(=O)(=O)O.OC(CCN1CCCCC1)(c1ccccc1)c1ccccc1` [Pridinol methanesulfonate salt], the ThS net change under setting [4] stood at 350.

In turn, `CC(c1cc2ccccc2s1)N(O)C(N)=O` (centres unmarked) [Zileuton] displayed a ThS net change under setting [2] of 410.

In turn, `Cc1ccnc(NS(=O)(=O)c2ccc(N)cc2)n1` [Sulfamerazine] gave a ThS net change under setting [1] of 421.

Turning to `CC1(C)S[C@@H]2[C@H](NC(=O)[C@H](N)c3ccccc3)C(=O)N2[C@H]1C(=O)O` [Ampicillin trihydrate], the ThS net change under setting [4] amounted to 355.

Compound `CC(C(=O)O)c1ccc2c(c1)Cc1cccnc1O2` (centres unmarked) [Pranoprofen] gave a ThS net change under setting [4] of 345.

Under setting [1], `Nc1ccn([C@@H]2O[C@H](CO)[C@@H](O)C2(F)F)c(=O)n1` [Gemcitabine] displayed a ThS net change of 470.

For the origin of these results see PMC7539012, “Hyperphosphorylated tau aggregation and cytotoxicity modulators screen identified prescription drugs linked to Alzheimer's disease and cognitive functions” (Scientific Reports, 2020).
